Assay results as given in US6911324B2, “Induction of beta cell differentiation in human cells” (The Regents of the University of California, priority 2001, dated 2005).

How the values were obtained:
Format in all cases: cell-based, human
[1] = tested on: βlox5/PDX-1/MycER aggregates; test: Transcription factor expression after c-Myc activation (RT-PCR, EMSA, western blot); conditions: c-Myc activation by 4-OHTM
Description: For western blots, whole-cell extracts (10 μg of protein) from monolayer cultures and aggregates of TRM-6 and βlox5 cells as well as whole-cell extracts of the MycER expressing clones were used. Expression of c-Myc and MycER was determined by Western blot analysis with the human c-Myc-specific monoclonal antibody Myc-9E10 (Santa Cruz Biotechnology, Santa Cruz, Calif.) at a dilution of 1:250. The same membrane was re-probed with anti-actin rabbit antibody A2066 (Sigma, Saint Louis, Mo.) in order to verify the protein equivalence when comparing monolayers to aggregates. Western Blot for Phospho-CREB (Ser133) was performed using a polyclonal antibody (PhosphoPlusCREB (Ser133) Antibody Kit, Cell Signaling Technology, Beverly, Mass.) at a dilution of 1:500. Bound antibody was detected with horseradish peroxidase-linked anti-mouse or anti-rabbit Ig (Amersham Pharmacia Biotech, Buckinghamshire, England) and ECL (Amersham Pharmacia Biotech, Buckinghamshire, England).
βlox5 cells express Pax6 and RIPE3b in both the uninduced and induced states. BETA2/NeuroD is present only when the cells are induced. […] As shown by electrophoretic mobility shift assay analysis (EMSA), although not quantitative, we found binding of PDX-1, BETA2/NeuroD1 or RIPE3b to the insulin promoter in the samples from βlox5/PDX-1/MycER aggregates cultured with and without 4-OHTM. […]

[2] = tested on: βlox5/PDX-1/MycER aggregates; test: Ki-67 immunostaining for cell proliferation; conditions: 4-OHTM added to aggregates; 16% without 4-OHTM; n=300 cells
Text: PDX-1 and cell-cell contact caused a decrease in cell proliferation in βlox5/PDX-1/MycER cells as shown by immunostaining for the proliferation-associated nuclear antigen Ki-67. In monolayer culture, 77% of βlox5 cells expressed Ki67, while only 16% of the cells in βlox5/PDX-1/MycER aggregates were Ki67 positive (n=300 cells in each case). Addition of 4-OHTM to the aggregates increased the percentage of Ki67 positive cells to 57%. In the absence of 4-OHTM, few cells in the aggregates were positive for Ki-67, while in the presence of 4-OHTM many cells throughout the aggregates were positive.

TRM-6/PDX-1 cells = test: Somatostatin expression after c-Myc induction in TRM-6 aggregates; conditions: four days of aggregation, presence of 4-OHTM
Description: (§1) To determine whether the induction of differentiation in the TRM-6 and βlox5 cell lines requires downregulation of c-Myc expression, the effect of inducing c-Myc activity on hormone expression in cells expressing the MycER fusion protein was tested. 4-OHTM or the same amount of ethanol carrier was added to TRM-6/PDX-1 and βlox5/PDX-1 cells at the initiation of the four day period of aggregation required for hormone induction. In addition, 100 nM of the GLP-1 agonist exendin-4 was added to βlox5/PDX-1, as activation of the GLP-1 receptor is necessary for β-cell differentiation in that cell line (Itkin-Ansari, et al., Molec. Endocrinol. 14:814-822(2000)).
(§2) In the absence of 4-OHTM, TRM-6 aggregates expressed high levels of somatostatin after four days of aggregation, while βlox5 aggregates expressed high levels of insulin. […] Insulin protein (273±70.5 pmoles/L) was detected by ELISA in supernatant from βlox5/PDX-1/MycER aggregates in the absence of 4-OHTM but was undetectable in the presence of 4-OHTM. Data were obtained from four independent experiments. To determine whether c-Myc activation produced ablation of hormone expression as opposed to a switch to a different endocrine lineage, the expression of the other major pancreatic hormones, somatostatin, glucagon and pancreatic polypeptide, was measured in 4-OHTM-treated βlox5/PDX-1/MycER cells and found to be absent.

MycER fusion protein = test: RT-PCR of c-Myc downstream targets cyclin E and cyclin A after MycER activation; conditions: βlox5/PDX-1/MycER aggregates
Text: To test the hypothesis that decreased c-Myc expression in cell aggregates plays a causal role in promoting differentiation by cell-cell contact, we took advantage of the inducible properties of a fusion protein between an estrogen receptor and c-Myc (Eilers, et al. Nature 340:66-68 (1989)). MycER was expressed in TRM-6 and βlox5 by retroviral infection followed by puromycin selection. Selected βlox5 and TRM-6 cells expressed MycER as shown by western blot analysis. To determine whether the fusion protein was active, the expression of cyclin E and cyclin A was determined since they are known downstream targets of c-Myc.

βlox5/PDX-1/MycER cells = test: PDX-1 cellular localization and p38 activation state
Text: PDX-1 plays a role in the establishment and maintenance of β-cell differentiation. In both the βlox5 and TRM-6 cell lines, it is required for the induction of hormone expression. Therefore, PDX-1 was a good candidate for being a downstream target for c-Myc in the inhibition of hormone expression. Since, in the cell lines that we are studying, PDX-1 is introduced exogenously using a retroviral vector and is transcribed from the retroviral LTR promoter, it was unlikely that c-Myc would be acting at the transcriptional level. Therefore, we investigated PDX-1 cellular localization in βlox5/PDX-1/MycER cells in the presence and absence of 4-OHTM. […] However, many cells exposed to 4-OHTM continued to express PDX-1 in the nucleus and PDX-1 binding to a target DNA sequence could still be detected by EMSA. This could be due to the length of time that the cells were exposed to 4-OHTM or to other pathways such as p38 (RK/SAPK2) that influences PDX-1 localization and function.
Because PDX-1 localization has been reported to be influenced by the p38 pathway, the activation state of p38 was studied using a monoclonal antibody specific for the phosphorylated/active form of the enzyme. In control and 4-OHTM-treated βlox5/PDX-1/MycER cells, active p38 was present in the cytoplasm.

[3] = tested on: βlox5/PDX-1/MycER aggregates; test: Hormone expression after c-Myc induction in βlox5/PDX-1/MycER aggregates (RT-PCR, insulin ELISA)
Description: as §1, §2

βlox5/PDX-1 cells = test: Expansion of βlox5/PDX-1 cells under continued administration; conditions: continued administration of 4-OHTM; cells ordinarily almost completely growth arrested
Text: The finding that c-Myc induces the translocation of PDX-1 to the cytoplasm provides important clues to the mechanism by which c-Myc may act on pancreatic endocrine cell proliferation and differentiation. In our system, not only does PDX-1 play a role in inducing hormone expression, but it also produces a marked growth arrest, particularly in the β-cell line βlox5. […] Thus, cell-cell contact and PDX-1 each play dual roles in inhibiting entry into the cell cycle as well as promoting differentiation.

βlox5 cells [4] = test: RT-PCR analysis of pancreatic hormone gene expression in βlox5 cells
Description: FIG. 2: RT-PCR analysis of pancreatic hormone gene expression in βlox5. The conditions tested were βlox5 cells grown in monolayer culture, βlox5 cells infected with a retroviral vector expressing PDX-1, βlox5 cells grown as three-dimensional aggregates, and βlox5 cells treated with exendin-4. FIG. 2(A) insulin; FIG. 2(B) quantitative RT-PCR analysis of insulin gene expression; FIG. 2(C) other pancreatic hormones. Exendin-4 (Sigma) was used at a concentration of 10 nM. RT-PCR for insulin, somatostatin, glucagon, and IAPP have been described previously (Itkin-Ansari et al., submitted). Quantitative RT-PCR was done by interpolation from a standard curve constructed using a plasmid containing the human insulin cDNA.
PDX-1 also acted synergistically with cell-cell contact to further increase the level of somatostatin expression about 1,000-fold above the cells not expressing PDX-1, to a level similar to that found in normal human islets. To determine whether βlox5 could be induced to express pancreatic hormones, recombinant PDX-1 was expressed in βlox5 using a retroviral vector. […] Therefore, other factors were examined for their ability to induce hormone expression in βlox5 cells expressing PDX-1. Activin and betacellulin have been reported to be able to induce endocrine differentiation in cell lines and primary cells (Mashima et al., Diabetes 48:304-9 (1999), Huotari et al., Endocrinology 139, 1494-9 (1998), Mashima et al., J Clin Invest 97:1647-54 (1996), Yamaoka et al., J Clin Invest 102:294-301 (1998)). However, they had no effect on hormone expression in βlox5 cells (data not shown).
GLP-1, a small peptide cleaved from the proglucagon molecule, is an insulin secretogogue Drucker et al., Diabetes 47:159-69 (1998)).

βlox5 cells [5] = test: Analysis of transcription factors (BETA2 RT-PCR, CREB western blot) in βlox5 cells
Description: FIG. 3: Analysis of transcription factors expressed in βlox5 cells. FIG. 3(A) electrophoretic mobility shift assay (EMSA) of PDX-1. EMSA for PDX-1 was performed using a probe derived from the human insulin promoter A5 element. FIGS. 3(B&C) RT-PCR analysis of BETA2 and Pax6. FIG. 3(D) Western blot analysis of CREB. FIG. 3(E) EMSA of RIPE3b.
The expression of transcription factors important in β-cell development was examined to determine whether they had been induced by PDX-1, cell-cell contact, and exendin-4. […] GLP-1 has been reported to increase cAMP levels and this has been thought to be a major mechanism by which GLP-1 acts as an insulin secretogogue (Serre et al., Endocrinology 139:4448-54 (1998)). […] RIPE3b, a factor that plays a critical role in insulin gene expression but that has not yet been cloned, is expressed in βlox5 irrespective of PDX-1, cell-cell contact, or exendin-4 (FIG. 3E).

[6] = tested on: βlox5 cells expressing both NeuroD/BETA2 and PDX-1; test: Insulin production (RT-PCR) in βlox5 cells expressing both NeuroD/BETA2 and PDX-1
Description: Cells were cultured in DMEM with 5.5 mM glucose and 10% FBS. Selection of clones was conducted in the same medium containing 300 ug/ml Hygromycin B. Qualitative RT-PCR was performed according to Itkin-Ansari et al., Mol. Endocrinol. 14:814-822 (2000).
In light of the previous finding that activation of GLP-1 receptor is one of the necessary inducing factors for β-cell differentiation, βlox5 cells expressing both NeuroD/BETA2 and PDX-1 were also tested for insulin production, before and after stimulation by exendin-4. The cells were treated with 10 nM exendin-4 in the culture medium for four days before the assay.
Cell aggregation was induced as described by Itkin-Ansari et al., supra, 2000. Quantitative insulin RT-PCR was performed by interpolation from a standard curve constructed using a plasmid containing the human insulin cDNA, as described by Beattie et al., Diabetes, 48:1013-1019, 1999.

[7] = induced βlox5 cells (PDX-1, cell-cell contact, exendin-4)

## CC/C(=C(\c1ccc(O)cc1)c1ccc(OCCN(C)C)cc1)c1ccccc1 [4-OHTM]
[1]; RT-PCR
  level of mRNA for Pax6 and induction of BETA2/NeuroD1 gene expression: did not result in a change
[1]; western blot
  CREB expression: not affected
[2]
  percentage of Ki67 positive cells: 57%
TRM-6/PDX-1 cells
  somatostatin mRNA: neither somatostatin nor insulin mRNA was present
MycER fusion protein
  cyclin A expression: did not affect
  cyclin E mRNA expression: increase
βlox5/PDX-1/MycER cells; 4-OHTM-induced activation of c-Myc
  PDX-1 cellular localization: translocation of PDX-1 from the nucleus to the cytoplasm
βlox5/PDX-1/MycER cells; 4-OHTM-treated cells, antibody to phosphorylated/active p38
  p38 expression or activation: did not result in any changes
[3]; 4-OHTM-treated βlox5/PDX-1/MycER cells
  expression of somatostatin, glucagon and pancreatic polypeptide: absent
[3]; four days of aggregation, 100 nM exendin-4, presence of 4-OHTM
  insulin mRNA: neither somatostatin nor insulin mRNA was present
[3]; presence of 4-OHTM, 273±70.5 pmoles/L in its absence, four independent experiments
  insulin protein in supernatant by ELISA: undetectable
βlox5/PDX-1 cells
  cell growth: rapid expansion

## Activin
βlox5 cells [4]; βlox5 cells expressing PDX-1, data not shown
  effect on hormone expression in βlox5 cells: no effect

## exendin-4
βlox5 cells [4]; exendin-4 by itself, 10 nM, four days
  effect on hormone expression in βlox5: no effect
βlox5 cells [4]; [7]
  Islet amyloid polypeptide (IAPP) mRNA: expressed
  glucagon, somatostatin and pancreatic polypeptide (PP) expression: not induced
βlox5 cells [4]; βlox5 cells expressing PDX-1, suspension culture as three-dimensional aggregates, 10 nM exendin-4
  insulin mRNA: a substantial amount of insulin mRNA was detectable
βlox5 cells [5]; PDX-1, cell-cell contact and exendin-4
  BETA2 expression: induced only by the combination of all three inducing factors
βlox5 cells [5]; exendin-4 alone, independently of cell-cell contact and PDX-1
  CREB expression: induced
[6]; 10 nM exendin-4, suspension culture, three-dimensional aggregates
  insulin production: clearly detectable
[6]; exendin-4 treatment alone, 10 nM, four days
  insulin production: incapable of inducing insulin production
